Read-outs that look alike come from different tables or passages of the source.
What was measured:
[1] = target: T1, α2-receptors (Mus musculus, UniProt Q01338); assay: α2-antagonism in vitro, isolated electrically stimulated mouse vas deferens (vs detomidine); format: biochemical
T1 construct: isolated, electrically stimulated mouse vas deferens preparation; from tissue; host or cells: mouse vas deferens
T1 sequence (Q01338 1-465): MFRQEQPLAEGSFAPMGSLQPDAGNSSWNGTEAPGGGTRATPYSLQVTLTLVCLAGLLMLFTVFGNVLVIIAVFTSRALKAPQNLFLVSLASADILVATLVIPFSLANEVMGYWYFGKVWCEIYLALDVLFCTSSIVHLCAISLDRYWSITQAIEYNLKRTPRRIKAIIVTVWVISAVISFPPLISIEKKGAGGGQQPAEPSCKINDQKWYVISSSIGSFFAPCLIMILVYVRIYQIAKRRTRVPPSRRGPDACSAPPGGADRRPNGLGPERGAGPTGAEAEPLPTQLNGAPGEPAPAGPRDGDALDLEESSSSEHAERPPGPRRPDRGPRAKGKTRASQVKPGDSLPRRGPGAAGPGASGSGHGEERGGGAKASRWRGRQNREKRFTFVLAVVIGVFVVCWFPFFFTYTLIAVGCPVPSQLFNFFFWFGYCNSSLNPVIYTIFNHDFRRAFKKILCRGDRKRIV
Experimental: α2 -antagonism was determined by means of isolated, electrically stimulated mouse vas deferens preparation (Marshall et al., Br. J. Pharmac. 62, 147, 151, 1978). In this model, α2 -agonist (detomidine) blocks electrically stimulated muscular contractions and the effect of the α2 -antagonist is seen by administering it prior to the agonist and by determining its pA2 value. Known α2 -antagonists like yohimbine and rauwolscine were used as reference substances.

[2] = target: α1-receptors; assay: α1-agonism in vitro, isolated anococcygeus muscle (rat); format: biochemical; details: negative logarithm of the molar concentration producing 50 percent of maximal contraction
Experimental: (§1) To obtain information also on the selectivity of the antagonist between α1 - and α2 -receptors, its ability to inhibit or stimulate α1 -receptors was determined by means of isolated anococcygeus muscle (rat). […] To determine α-antagonism, muscular contraction was induced by phenylephrine and the pA2 value of the studied compound was determined as above. α1 -agonist effect is presented as the pD2 value (negative logarithm of the molar concentration of the compound producing 50 percent of maximal contraction).

[3] = target: T2, α2-receptors of the central nervous system (Rattus norvegicus, UniProt P22909); assay: α2-antagonism in vivo, reversal of detomidine-induced mydriasis in anaesthetized rat; details: iv
T2 construct: In anaesthetized rat, a standard dose of detomidine was administered intravenously; from tissue; host or cells: whole anaesthetized rat, in vivo (central nervous system)
T2 sequence (P22909 1-465): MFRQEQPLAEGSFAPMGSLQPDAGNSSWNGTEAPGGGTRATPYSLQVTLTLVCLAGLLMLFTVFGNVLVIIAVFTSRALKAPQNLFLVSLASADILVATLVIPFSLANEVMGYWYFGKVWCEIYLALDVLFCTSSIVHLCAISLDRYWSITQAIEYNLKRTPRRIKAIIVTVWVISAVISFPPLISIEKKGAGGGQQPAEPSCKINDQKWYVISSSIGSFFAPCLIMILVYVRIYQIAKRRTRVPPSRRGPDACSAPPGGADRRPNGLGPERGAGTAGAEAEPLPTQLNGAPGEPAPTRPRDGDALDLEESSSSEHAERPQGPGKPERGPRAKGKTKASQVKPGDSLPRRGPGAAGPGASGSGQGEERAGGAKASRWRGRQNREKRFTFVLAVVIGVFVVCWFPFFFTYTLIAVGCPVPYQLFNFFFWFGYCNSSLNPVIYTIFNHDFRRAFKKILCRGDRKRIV
Experimental: The central α2 -blocking effect of the studied substances under in vivo conditions was studied using two methods. First, it is known that in the rat α2 -agonists induce dilatation of the pupil (mydriasis) which effect is transmitted via α2 -receptors of the central nervous system. In anaesthetized rat, a standard dose of detomidine was administered intravenously. Thereafter increasing doses of the studied antagonist were injected intravenously and the reversal of detomidine-induced mydriasis was followed. The ED50 value of the antagonist, i.e. the dose producing a 50 percent reversal, was determined.

[4] = target: α1-receptors; assay: α1-antagonism in vitro, isolated anococcygeus muscle (rat), contraction induced by phenylephrine; format: biochemical
Experimental: as §1

[5] = tested on: α2-receptor; assay: α2-antagonism in the central nervous system, inhibition of detomidine induced potentiation of barbiturate sleeping time in mice; format: in vivo, mouse; details: detomidine 150 μg/kg ip
Text: α2 -antagonism in the central nervous system was secondly studied by following the ability of the antagonist to inhibit detomidine induced sedation in the mouse. This was done by measuring the increase of barbiturate sleeping time induced by detomidine. This effect of detomidine is known to be induced through α2 -receptor activation. The antagonist can be studied by administering it prior to detomidine.

[6] = antagonist given prior to detomidine, read-out: α2-antagonism (pA2 vs detomidine) mouse vas deferens (converted)

| Compound | α1-agonism (pD2) rat anococcygeus [2] | ED50, 50 percent reversal of detomidine-induced mydriasis ([3]; rat, in vivo) | Kb [1] | further results |
| --- | --- | --- | --- | --- |
| Brc1ccc2c(c1)CC(c1cnc[nH]1)O2 (centres unmarked) [Compound III] | 4.5 | 0.32 mg/kg | – | Kb [1, 6]: 631 nM |
| CCC1(c2cnc[nH]2)Cc2ccc(C)cc2C1 (centres unmarked) [Compound XVII] | – | – | – | Kb [1, 6]: 251 nM |
| CNC[C@H](O)c1cccc(O)c1 [Phenylephrine, reference compound] | 6.5 | – | – | – |
| c1ccc2c(c1)CCC(c1cnc[nH]1)C2 (centres unmarked) [Compound XVIII] | 6.0 | – | 20 nM | – |
| CC1(c2cnc[nH]2)Cc2ccccc2C1 [Compound XII] | 5.5 | 0.003 mg/kg | – | Kb [1, 6]: 7.94 nM |
| Cc1cccc2c1CC(c1cnc[nH]1)C2C (centres unmarked) [Compound VII] | 6.0 | 0.1 mg/kg | 25.1 nM | – |
| Cc1ccc2c(c1)C(C)C(c1cnc[nH]1)C2 (centres unmarked) [Compound VIII] | – | 0.1 mg/kg | 25.1 nM | α1-antagonism (pA2 vs phenylephrine) rat anococcygeus [4]: 5.9 |
| CC1c2ccccc2CC1c1cnc[nH]1 (centres unmarked) [Compound VI] | 6.5 | 0.1 mg/kg | 2 nM | – |
| c1ccc2c(c1)CC(c1cnc[nH]1)C2 [Compound I] | 6.5 | 0.003 mg/kg | 1.58 nM | Effect on detomidine induced potentiation of the barbiturate sleeping time (± percent of controls) ([5]; dose 0.1 mg/kg): -20% of controls; Effect on detomidine induced potentiation of the barbiturate sleeping time (± percent of controls) ([5]; dose 0.3 mg/kg): -60% of controls; Effect on detomidine induced potentiation of the barbiturate sleeping time (± percent of controls) ([5]; dose 1 mg/kg): -100% of controls |
| COc1cc2nc(N3CCN(C(=O)c4ccco4)CC3)nc(N)c2cc1OC [Prazosin] | – | – | – | Effect on detomidine induced potentiation of the barbiturate sleeping time (± percent of controls) ([5]; dose 0.1 mg/kg): 0% of controls; Effect on detomidine induced potentiation of the barbiturate sleeping time (± percent of controls) ([5]; dose 0.3 mg/kg): 0% of controls; Effect on detomidine induced potentiation of the barbiturate sleeping time (± percent of controls) ([5]; dose 1 mg/kg): 0% of controls; Effect on detomidine induced potentiation of the barbiturate sleeping time (± percent of controls) ([5]; dose 3 mg/kg): +16% of controls; Effect on detomidine induced potentiation of the barbiturate sleeping time (± percent of controls) ([5]; dose 10 mg/kg): +18% of controls |
| c1ccc2c(c1)CC(c1cnc[nH]1)O2 (centres unmarked) [Compound II] | 5.5 | 0.07 mg/kg | 31.6 nM | Effect on detomidine induced potentiation of the barbiturate sleeping time (± percent of controls) ([5]; dose 0.1 mg/kg): -5% of controls; Effect on detomidine induced potentiation of the barbiturate sleeping time (± percent of controls) ([5]; dose 0.3 mg/kg): -30% of controls; Effect on detomidine induced potentiation of the barbiturate sleeping time (± percent of controls) ([5]; dose 1 mg/kg): -60% of controls; Effect on detomidine induced potentiation of the barbiturate sleeping time (± percent of controls) ([5]; dose 3 mg/kg): -70% of controls; Effect on detomidine induced potentiation of the barbiturate sleeping time (± percent of controls) ([5]; dose 10 mg/kg): -85% of controls |
| CCC1(c2cnc[nH]2)Cc2ccccc2C1 [Compound XV] | – | – | 5.01 nM | – |
| Cc1ccc2c(c1)CC(c1cnc[nH]1)C2 (centres unmarked) [Compound IV] | 6.5 | 0.02 mg/kg | 20 nM | – |
| Cc1ccc(N(CC2=NCCN2)c2cccc(O)c2)cc1 [Phentolamine, reference compound] | – | – | – | ED50, 50 percent reversal of detomidine-induced mydriasis ([3]; anaesthetized rat, standard iv dose of detomidine): 1 mg/kg |
| COC(=O)[C@@H]1[C@H]2C[C@H]3c4[nH]c5ccccc5c4CCN3C[C@@H]2CC[C@@H]1O [Yohimbine] | – | 0.2 mg/kg | 7.94 nM | α1-antagonism (pA2 vs phenylephrine) rat anococcygeus [4]: 6.6; Effect on detomidine induced potentiation of the barbiturate sleeping time (± percent of controls) ([5]; dose 0.1 mg/kg): 0% of controls; Effect on detomidine induced potentiation of the barbiturate sleeping time (± percent of controls) ([5]; dose 0.3 mg/kg): -18% of controls; Effect on detomidine induced potentiation of the barbiturate sleeping time (± percent of controls) ([5]; dose 1 mg/kg): -64% of controls; Effect on detomidine induced potentiation of the barbiturate sleeping time (± percent of controls) ([5]; dose 3 mg/kg): -70% of controls; Effect on detomidine induced potentiation of the barbiturate sleeping time (± percent of controls) ([5]; dose 10 mg/kg): -100% of controls |
| COC(=O)[C@H]1[C@H]2C[C@H]3c4[nH]c5ccccc5c4CCN3C[C@H]2CC[C@@H]1O [Rauwolscine, reference compound] | – | – | 7.94 nM | α1-antagonism (pA2 vs phenylephrine) rat anococcygeus [4]: 6.3 |
